Source: patent publication US20080261911A1, “Uses of diphenyl/diphenylamine carboxylic acids” (priority 2006, published 2008)

Columns and labels:
Assay type in all cases: cell-based
VEGFR1 promoter = VEGFR1 promoter (pVEGFR1A-C) luciferase activity in Panc-1 cells; settings: 50 μM
Experimental: FIGS. 17A-17D show effects of tolfenamic acid on the VEGFR1 promoter and mRNA expression. Transfection with pVEGFR1-A (FIG. 17A), pVEGFR1-B (FIG. 17B), and pVEGFR1-C (FIG. 17C). Panc-1 cells were transfected with pVEGFR1 constructs, treated with DMSO, 50 μM ampiroxicam, or 50 μM tolfenamic acid, and luciferase activity was determined as described in Materials and Methods. […] Results are shown for a single experiment and similar data was obtained in replicate experiments. Cells are cultured in 6-well plates in 2 ml of DME/F12 medium supplemented with 5% fetal bovine serum. After 16-20 hr when cells are 50-60% confluent, reporter gene constructs are transfected using LIPOFECTAMINE™ reagent (Invitrogen, Carlsbad, Calif.). The effects of the selective non-steroidal anti-inflammatory drugs on transactivation are investigated in Panc1 and L3.6pl cells co-transfected with different VEGF constructs (500 ng). […] For proteasome inhibitor experiments, cells will be co-treated with 2 μM lactacystin, and for electrophoretic mobility shift assay (EMSA), nuclear extracts from Panc1 and L3.6pl cells are isolated as described, and aliquots will be stored at −80° C. until used (Abdelrahim et al, 2004; Abdelrahim et al, 2005).

[1] = test system: VEGF-B/VEGFR1 signaling (MAPK1/2 phosphorylation); experiment: VEGF-B activation of MAPK in Panc-1 cells; settings: 50 μM pretreatment for 36 hr, VEGF-B 5 or 10 min
Experimental: Cells were pretreated with DMSO, 50 μM ampiroxicam, or 50 μM tolfenamic acid for 36 hr; VEGF-B (50 ng/ml) was added for 5 or 10 min, and whole cell lysates were obtained and analyzed by Western blot. Cell migration assay (FIG. 18C). […] Immunostaining of pancreatic tumors (FIG. 18D). Pancreatic tumors from athymic nude mice treated with solvent (control), gemcitabine (50 mg/kg), or tolfenamic acid (25 and 50 mg/kg) (Dick, 1996) were stained with VEGFR1 antibodies as described below and in a previous report (Dick, 1996).
Panc-1 cells were pretreated with DMSO, 50 μM ampiroxicam, or 50 μM tolfenamic acid for 48 h, and then were treated with VEGF-B (50 ng/ml) for 5 and 10 min. MAPK phosphorylation in the various treatment groups was then determined by western immunoblot analysis as described above. For migration assays, Panc-1 cells were seeded in triplicate in six-well collagen IV coated plates and then treated with the selected non-steroidal anti-inflammatory drugs for 24 h before the scratch was made. […]
Previous studies have reported that activation of VEGFR1 by VEGF-B in pancreatic cancer cells results in enhanced phosphorylation of MAPK and increased cell migration and invasion. […] The importance of Sp protein in VEGFR1-dependent Panc-1 cell migration was determined using a cell migration assay on collagen IV-coated plates.

VEGFR1 = VEGFR1 protein expression in Panc-1 cells (Western blot, immunostaining); settings: 50 μM, 48 h
Experimental: FIGS. 14A-14D show tolfenamic acid decreases expression of Sp and VEGFR1 proteins in pancreatic cancer cells. Tolfenamic acid effects on Panc-1 cells (FIG. 14A and FIG. 14B), and L3.6pl cells (FIG. 14C and FIG. 14D). Cells were treated with DMSO, 50 μM tolfenamic acid, or 50 μM ampiroxicam for 48 h, and whole cell lysates were analyzed by Western blot analysis. […] FIGS. 16A-16D show the interaction of Sp proteins with VEGFR1 promoter sequences. […] The specific Sp protein bands and antibody supershifted complexes are indicated with arrows. Effects of tolfenamic acid on VEGFR1 and Egr-1 protein expression in Panc-1 cells (FIG. 16C), and L3.6pl cells (FIG. 16D). […] Cells are washed once with phosphate buffered saline PBS and collected by scraping in 200 μL of lysis buffer [50 mM HEPES, 0.5M sodium chloride, 1.5 mM magnesium chloride, 1 mM EGTA, 10% (v/v) glycerol, 1% Triton X-100, 5 μL/ml of Protease Inhibitor Cocktail (Sigma)]. The lysates from the cells are incubated on ice for 1 hr with intermittent vortexing followed by centrifugation at 40,000 g for 10 min at 4° C. […] Samples are electrophoresed, transferred to membranes, and proteins detected by incubation with polyclonal primary antibodies Sp1, Sp3, Sp4, HDAC, VEGF (a-20), c-Met, surviving, VEGF, cleaved PARP, and β-tubulin (H-235) followed by blotting with appropriate horseradish peroxidase-conjugated secondary antibody as previously described (Abdelrahim et al, 2004). After autoradiography, band intensities are determined by a scanning laser densitometer (Sharp Electronics Corporation, Mahwah, N.J.) using ZERO-D […] software (Scanalytics Corporation, Billerica, Mass.).

[2] = test system: cleaved poly (ADP-ribose) polymerase (PARP) protein; experiment: Apoptosis: cleaved PARP in Panc-1 cells, Western blot; settings: 48 hr
Experimental: Cells are washed once with phosphate buffered saline PBS and collected by scraping in 200 μL of lysis buffer [50 mM HEPES, 0.5M sodium chloride, 1.5 mM magnesium chloride, 1 mM EGTA, 10% (v/v) glycerol, 1% Triton X-100, 5 μL/ml of Protease Inhibitor Cocktail (Sigma)]. The lysates from the cells are incubated on ice for 1 hr with intermittent vortexing followed by centrifugation at 40,000 g for 10 min at 4° C. Equal amounts of protein (60 μg) from each treatment group are diluted with loading buffer, boiled and loaded onto 10 and 12.5% SDS-polyacrylamide gel. […] Samples are electrophoresed, transferred to membranes, and proteins detected by incubation with polyclonal primary antibodies Sp1, Sp3, Sp4, HDAC, VEGF (a-20), c-Met, surviving, VEGF, cleaved PARP, and β-tubulin (H-235) followed by blotting with appropriate horseradish peroxidase-conjugated secondary antibody as previously described (Abdelrahim et al, 2004). After autoradiography, band intensities are determined by a scanning laser densitometer (Sharp Electronics Corporation, Mahwah, N.J.) using ZERO-D SCANALYTICS software (Scanalytics Corporation, Billerica, Mass.).

Egr-1 protein = Egr-1 protein expression in Panc-1 cells, Western blot; settings: 50 μM, 48 h
Experimental: Cells are washed once with phosphate buffered saline PBS and collected by scraping in 200 μL of lysis buffer [50 mM HEPES, 0.5M sodium chloride, 1.5 mM magnesium chloride, 1 mM EGTA, 10% (v/v) glycerol, 1% Triton X-100, 5 μL/ml of Protease Inhibitor Cocktail (Sigma)]. The lysates from the cells are incubated on ice for 1 hr with intermittent vortexing followed by centrifugation at 40,000 g for 10 min at 4° C. Equal amounts of protein (60 μg) from each treatment group are diluted with loading buffer, boiled and loaded onto 10 and 12.5% SDS-polyacrylamide gel. For vascular endothelial growth factor immunoblots, 100 μg of protein are used. Samples are electrophoresed, transferred to membranes, and proteins detected by incubation with polyclonal primary antibodies Sp1, Sp3, Sp4, HDAC, VEGF (a-20), c-Met, surviving, VEGF, cleaved PARP, and β-tubulin (H-235) followed by blotting with appropriate horseradish peroxidase-conjugated secondary antibody as previously described (Abdelrahim et al, 2004). After autoradiography, band intensities are determined by a scanning laser densitometer (Sharp Electronics Corporation, Mahwah, N.J.) using ZERO-D SCANALYTICS software (Scanalytics Corporation, Billerica, Mass.).
The proximal region of the VEGFR1 promoter contains GC-rich and Egr-1 sites. […]

Structure (SMILES) | luciferase activity, pVEGFR1A, pVEGFR1B and pVEGFR1C (VEGFR1 promoter) | VEGF-B-induced phosphorylation of MAPK1/2 [1] | VEGFR1 immunostaining (VEGFR1) | VEGFR1 protein levels, Western blot (VEGFR1) | poly (ADP-ribose) polymerase cleavage ([2]; 50 μM) | Egr-1 protein (Egr-1 protein) | poly (ADP-ribose) polymerase cleavage ([2]; 150 μM)
Cc1c(Cl)cccc1Nc1ccccc1C(=O)O [tolfenamic acid] | decreased luciferase activity | decreased phospho-MARK1/2 | decreased VEGFR1 staining | decreased VEGFR1 protein levels | induced protein degradation and poly (ADP-ribose) polymerase cleavage | unchanged in all treatment groups | –
CCOC(=O)OC(C)OC1=C(C(=O)Nc2ccccn2)N(C)S(=O)(=O)c2ccccc21 (stereo not drawn) [ampiroxicam] | but not DMSO or ampiroxicam, decreased luciferase activity | increased phosphorylation of MAPK1/2 | VEGFR1 immunostaining was observed | only the latter compound decreased VEGFR1 protein levels | – | unchanged in all treatment groups | only tolfenamic acid induced protein degradation and poly (ADP-ribose) polymerase cleavage
